According to ChEMBL document CHEMBL4359925, “Rational discovery of a highly novel and selective mTOR inhibitor” (Bioorg Med Chem Lett, 2019):

How the values were obtained:
[1] = target: Phosphatidylinositol 4,5-bisphosphate 3-kinase catalytic subunit alpha isoform (Homo sapiens, UniProt P42336); experiment: Inhibition of PI3K alpha (unknown origin)
[2] = target: Serine/threonine-protein kinase mTOR (Homo sapiens, UniProt P42345); experiment: Inhibition of human mTOR measured after 30 mins in presence of ATP by Lanthascreen TR-FRET assay

Sequence of Phosphatidylinositol 4,5-bisphosphate 3-kinase catalytic subunit alpha isoform (P42336 whole entry, canonical isoform): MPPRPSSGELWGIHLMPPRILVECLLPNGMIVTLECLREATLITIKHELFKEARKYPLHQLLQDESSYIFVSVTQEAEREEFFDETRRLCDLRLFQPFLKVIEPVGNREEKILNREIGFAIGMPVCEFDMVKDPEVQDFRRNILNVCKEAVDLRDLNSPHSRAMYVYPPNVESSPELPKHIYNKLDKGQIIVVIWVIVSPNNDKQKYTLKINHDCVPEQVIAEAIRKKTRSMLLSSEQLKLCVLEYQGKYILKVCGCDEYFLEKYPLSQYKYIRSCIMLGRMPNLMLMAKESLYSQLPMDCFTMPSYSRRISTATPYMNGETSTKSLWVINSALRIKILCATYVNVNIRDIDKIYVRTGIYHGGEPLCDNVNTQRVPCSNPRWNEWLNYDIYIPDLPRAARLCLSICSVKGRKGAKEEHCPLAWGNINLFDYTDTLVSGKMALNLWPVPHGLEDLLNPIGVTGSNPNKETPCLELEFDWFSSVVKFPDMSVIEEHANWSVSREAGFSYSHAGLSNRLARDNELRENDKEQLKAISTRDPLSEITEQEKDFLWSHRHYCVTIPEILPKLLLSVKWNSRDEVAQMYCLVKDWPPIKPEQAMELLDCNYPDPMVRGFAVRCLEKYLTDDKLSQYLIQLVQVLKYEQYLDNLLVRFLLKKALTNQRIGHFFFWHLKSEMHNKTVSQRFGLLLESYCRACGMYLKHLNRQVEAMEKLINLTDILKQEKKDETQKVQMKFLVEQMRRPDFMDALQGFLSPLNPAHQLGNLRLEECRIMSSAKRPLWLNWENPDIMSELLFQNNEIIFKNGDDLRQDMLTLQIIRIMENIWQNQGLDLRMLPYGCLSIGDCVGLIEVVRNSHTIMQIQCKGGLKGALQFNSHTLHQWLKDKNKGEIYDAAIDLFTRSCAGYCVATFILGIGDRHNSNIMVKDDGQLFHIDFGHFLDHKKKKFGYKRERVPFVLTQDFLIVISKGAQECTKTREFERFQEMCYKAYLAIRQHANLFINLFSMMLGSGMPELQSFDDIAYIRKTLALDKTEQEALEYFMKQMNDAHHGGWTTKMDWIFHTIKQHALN

IC50 [1] [nM] | IC50 [2] [nM] | SMILES
79.4 | 7.94 | CNC(=O)Nc1ccc(-c2ncc3c(n2)N2CCOC[C@@]2(C)C(=O)N3CC2CC2)cc1
2510 | 1580 | CNC(=O)Nc1ccc(-c2ncc3c(n2)N2CCOCC2CC(=O)N3)cc1 (centres undefined)
31.6 | 316 | CNC(=O)Nc1ccc(-c2ncc3c(n2)N2CCOCC2C(=O)N3)cc1 (centres undefined)
20 | 31.6 | CNC(=O)Nc1ccc(-c2ncc3c(n2)N2CCOCC2C(=O)N3CC2CC2)cc1 (centres undefined)
– | < 31.6 | O=C(Nc1ccc(-c2nc(N3CCOCC3)c3c(n2)C2(CC2)OC3)cc1)NC1CC1
